This note sets out measurements from patent US20110014204A1, “Cancer Chemoprevention Strategy Based on Loss of Imprinting of IGF2” (priority 2006, published 2011).

One assay deals with intestinal crypts. The assay can be described thus: Proliferation-related gene expression in laser capture microdissected intestinal crypts of mice treated with NVP-AEW541 for 3 weeks (real-time PCR). The format is in vivo. The conditions noted are these: mice treated with NVP-AEW541 50 mg/kg oral gavage for 3 weeks; LOI(−) normalized to 1.0. The protocol:
Qunatitative real-time PCR was performed on laser capture microdissected intestinal crypts from 12 LOI(+) and 9 LOI(−) mice. Expression was normalized to β-actin, and the expression level in LOI(+) samples (gray) relative to LOI(−) samples (black) is shown. The bars indicate standard error. […] Analysis was by quantitative real-time PCR of laser capture microdissected crypts from four LOI(+) mice and four LOI(−) mice treated with NVP-AEW541 for 3 weeks. LOI(+) (gray bars), LOI(−) mice (black bars normalized to 1.0).
For validation, LCM was performed on an additional 12 LOI(+) and 9 LOI(−) mice, isolating approximately 800 crypts yielding more than 300 ng of total RNA from each. RNA samples were reverse-transcribed using SUPERSCRIPT II (Invitrogen), and quantified using SYBR Green PCR Core Reagents and an ABI Prism 7700 Sequence Detection System (Applied Biosystems), and normalized to β-actin.
Four LOI(+) and four LOI(−) mice were also treated with NVP-AEW541 to inhibit IGF2 signaling, at a dose of 50 mg/kg by oral gavage daily for 3 weeks (twice daily except daily on weekends). NVP-AEW541 is an ATP-competitive inhibitor of IGF-IR which blocks signaling at the IGF1 receptor, which mediates IGF2 signaling (Garcia-Echeverria et al., Cancer Cell (2004) 5:231-239). […] Thus, LOI-induced changes in proliferation-related gene expression were mediated, at least in part, through IGF2 signaling itself.
A general note: Quantitative PCR measures a nucleic acid by following its amplification.

For another assay, the system named is Akt/PKB. Kind of assay: Microfluidic chamber single cell immunocytochemistry of Akt/PKB activation (phospho-Akt Ser 473) in LOI(+) and LOI(−) MEF cells. The format is cell-based, mouse. The conditions noted are these: 60 min coincubation with 400 ng/ml IGF2 and 3 μM NVP-AEW541. The protocol: (A) Akt/PKB activation was assayed by single cell immunocytochemistry with an antibody to phosphorylated Akt (Ser 473), in a monolithic 2-layer PDMS chip sealed with a glass coverslip, with defined media delivery controlled by a multiplexed system of valves. Live LOI(+) and LOI(−) MEF cells were stimulated within the microfluidic chips with varying doses of IGF2, with measurements at multiple time points at each IGF2 concentration. […] For each cell type, IGF2 concentration, and time point, at least 200 individual cellular measurements were obtained by digital imaging and analysis. (B) Inhibition of Akt activation by NVP-AEW541. The cells were assayed as in (A) at 60 min after coincubation with 400 ng/ml IGF2 and 3 μM NVP-AEW541 and compared with the unstimulated control. Each bar is based on measurements of >400 cells. Asterisk indicates statistical difference vs LOI(+) control (t test, P<0.001) (C) Single cell analysis of ERK activation by IGF2 in LOI(+) and LOI(−) MEF cells. Erk activation was assayed by single immunocytochemistry within microfluidic chips using an antibody to phosphorylated Erk2 from Upstate (Charlottesville, Va.). LOI(+) cells (gray) and LOI(−) cells (black) were exposed to 400 ng/ml IGF2 for indicated times. […] Error bars represent SD. Standard error bars are completely subsumed by the symbols on this scale. (D) Gene expression levels in mouse embryonic fibroblasts. Quantitative real-time PCR was performed on LOI(+) and LOI(−) MEF cells, with expression normalized to transferring receptor expression. The expression level in LOI(+) samples (black) relative to LOI(−) samples (gray) is shown. The bars indicate standard error.
The immunostaining automation device consists of a monolithic 2-layer PDMS chip sealed with a glass coverslip, fabricated using techniques described previously (Unger et al., Science 288 (2000) 288:113-116). Multiplexing valves were actuated by pressure lines connected to off-device solenoid valves. The chip architecture, performance and validation are all described in a separate manuscript submitted for publication. The glass substrate of the cell culture chamber was coated by introducing 0.1% gelatin (Sigma) into the device for at least 30 minutes, then cells were introduced and allowed to attach for 3 hours. IGF2 (StemCell Technologies) dissolved in cell media was introduced to each chamber at different times so that the end of all stimulation periods coincided. To end the experiment, ice-cold PBS (Invitrogen) was introduced into all chambers followed immediately by 4% paraformaldehyde (Electron Microscopy Systems) for 20 minutes. Cells were permeabilized with 0.1% Triton X-100 (Sigma) for 5 min and blocked with 10% goat serum (Sigma), with PBS washes in between. […] Using custom MATLAB (Mathworks) programs, the images were […], stitched together, and quantified. […] For each cell type and time point, 200-300 cells were analyzed in this manner to ensure statistical significance.
Since both the endogenous IGF2 and IGF2 used in the MEF experiments are susceptible to IGF2 binding protein (IBP)-based inactivation, the dose of an IBP-resistant IGF2 variant was determined producing similar levels of Akt activation. […]

Consider `Nc1ncnc2c1c(-c1cccc(OCc3ccccc3)c1)cn2C1CC(CN2CCC2)C1` (centres unmarked) [NVP-AEW541], for which, in the assay on intestinal crypts, the “Ccne1 expression in LOI(+) crypts relative to LOI(−) crypts” value worked out at 0.57 fold, the “Cdc6 expression in LOI(+) crypts relative to LOI(−) crypts” value amounted to 0.49 fold, the “Chaf1a expression in LOI(+) crypts relative to LOI(−) crypts” value was 0.42 fold and the “Lig1 expression in LOI(+) crypts relative to LOI(−) crypts” value was determined as 0.42 fold. Also, in the assay on intestinal crypts, the “Mcm3 expression in LOI(+) crypts relative to LOI(−) crypts” value is 0.65 fold and the “Mcm5 expression in LOI(+) crypts relative to LOI(−) crypts” value came out at 0.48 fold. For the same compound, the “inhibition of IGF2-triggered Akt activation” value in the assay on Akt/PKB (LOI(+) MEF cells) was “significantly below the baseline”. In the assay with Akt/PKB (LOI(−) MEF cells), the “inhibition of IGF2-triggered Akt activation” value is on record as “inhibited to the baseline levels”.
